# Ends that are not written are not given here.
# Experiments:
# [1] = test system: human and sheep erythrocytes
# Protocol: The haemolytic activity of peptides was determined by measuring haemoglobin leakage from human and sheep erythrocytes (Divbioscience, NL) after 1 h incubation at OD450nm. Cetyltrimethylammonium bromide (CTAB), a non-specific detergent was also included as a positive control. Triton-X 100 (0.1% v/v) was also used as an indicator of 100% haemolysis while PBS treatment represented auto-haemolysis.
# in vitro = conditions: 25% serum
# Protocol: The stability of Lynronne-1, Lynronne-2 and Lynronne-3 in the presence of serum was investigated by monitoring the concentrations of the remaining soluble peptides by reverse phase high-performance liquid chromatography (RP-HPLC), as described previously by Nguyen and colleagues.[26] Degradation of Lynronne-1, Lynronne-2 and Lynronne-3 in the presence of trypsin was adapted from a previously described method.[46] Briefly, trypsin (5 µl of 0.5 ng/ml) and 37.5 µl trypsin activation buffer (50 mM Tris, 2 mM CaCl2, pH 7.8-8) was added to 7.5 µl of 5 mg/ml Lynronne-1, Lynronne-2 and Lynronne-3 and incubated at 37 °C for different time points (0, 1, 3, and 24 h). An aliquot from each reaction mixture at 0 h was prepared to allow matrix-assisted laser desorption/ionization time-of-flight (MALDI-TOF) mass spectrometric verification of the synthetic peptides prior to incubation. Trypsin action buffer (5 µl) and peptides without trypsin was used as negative control. After the various incubation times, the reaction mixtures were acidified by addition of an equal volume (50 µl) of 10% (v/v) trifluroacetic acid (TFA) to stop further enzyme activity. Lynronne-1, Lynronne-2 and Lynronne-3 degradation products were evaporated to dryness and reconstituted in acetonitrile/water/TFA (40/59.5/0.5%, v/v/v). Samples (1 µl) were carefully placed onto a stainless steel (MALDI) target, covered with 1 µl of matrix (53 mM a-cyano-4-hydroxycinnamic acid in acetonitrile/water/TFA, 70/29.97/0.03%, v/v/v) solution before analysis by mass spectrometry.
# MRSA strains [2] = experiment: Time kill kinetics; format: cell-based, Staphylococcus aureus; conditions: 3× MIC, MHB
# Protocol: Assessment of the bactericidal activity of peptides and comparator antibiotics was performed as previously described[39] using exponential-phase cultures of pathogens grown in MHB ([…]). Peptides were added at concentrations 3 times their MIC values. Experiments were performed in quadruplicates, and CFU/ml was calculated at different time points after over overnight incubation.
# USA300 MRSA (BAA-1717) = experiment: Murine model of MRSA wound infection; format: in vivo, Staphylococcus aureus; conditions: ICR mice, topical 2% once daily for 3 days, five mice/group
# Protocol: The efficacy of Lynronne-1, Lynronne-2 and Lynronne-3 for treating a wound infection caused by USA300 community-associated methicillin resistant S. aureus (MRSA, strain BAA-1717) was evaluated using a murine wound model with ICR mice.[24] A sharp punch (ID 12 mm) was used to create excisional skin wounds in groups of five female ICR mice (5–6 weeks old). The mice were inoculated topically on the wound area (5 µl per wound) with 1.05 × 10^5 CFU/mouse of strain BAA-1717 suspended in 5 µl PBS. Peptides (2 or 10% w/v) in PBS (pH 7.4), control (PBS), and mupirocin 2% (Dermasafe® ointment) were topically applied (20 µl/mouse) directly to wounds 2 h post infection and once daily thereafter for three consecutive days. Test animals were sacrificed and the wound tissue was excised for enumeration of bacteria cells (CFU/wound). A two-log reduction in the bacterial count (≥99% reduction) relative to the control group indicates significant activity. Statistical significance (P < 0.05) was performed with one-way analysis of variance (ANOVA) followed by use of the Dunnett’s method.
# Sal. typhimurium = experiment: SPOT peptide library screen (resazurin fluorescence); format: cell-based, Salmonella enterica serovar Typhimurium; design: unit not given here; conditions: 75% reduction of fluorescence vs untreated controls; active IC75≤0.25, semi-active 0.25<IC75≤0.50, inactive IC75>0.5
# Text: (§1) The peptides in the created peptide library were synthesized based on the SPOT technique and pure peptides (≥95% purity) were synthesized on resin using solid phase Fmoc peptide chemistry.[16] The 135 peptides in the peptide library were screened for antimicrobial activity using both luminescent (Pseudomonas aeruginosa strain H1001)[34] and non-luminescent (epidemic methicillin resistant S. aureus EMRSA-15, Sal. typhimurium and E. coli K12) bacterial strains. Activity against non-luminescent bacteria strains was assessed by fluorescence readings (excitation/emission spectra of 560/590 nm) after the addition of resazurin dye (100 µm final concentration). The results from the screen were analysed using the MATLAB extension Gait-CAD as previously described.[35] Concentration values with a 75% reduction of luminescence or fluorescence (IC75) in relation to untreated controls were computed.
# MRSA strains [3] = conditions: sub-MIC levels, 25 days, daily passage
# Protocol: To evaluate if populations of AMP-resistant bacteria could be selected, cultures were continuously exposed to Lynronne-1, Lynronne-2 and Lynronne-3 for a duration of 25 days, as previously described.[40] Briefly, broth microdilution susceptibility testing was performed using a standard doubling-dilution series of Lynronne-1, Lynronne-2 and Lynronne-3 concentrations on day 1.
# P. aeruginosa H1001 = experiment: SPOT peptide library screen (luminescence); format: cell-based, Pseudomonas aeruginosa; design: unit not given here; conditions: 75% reduction of luminescence vs untreated controls; active IC75≤0.25, semi-active 0.25<IC75≤0.50, inactive IC75>0.5
# Text: as §1
# E. coli K12 = experiment: SPOT peptide library screen (resazurin fluorescence); format: cell-based, Escherichia coli; design: unit not given here; conditions: 75% reduction of fluorescence vs untreated controls; active IC75≤0.25, semi-active 0.25<IC75≤0.50, inactive IC75>0.5
# Text: as §1
# EMRSA-15 = experiment: as above; format: cell-based, Staphylococcus aureus; design: unit not given here; conditions: 75% reduction of fluorescence vs untreated controls; active IC75≤0.25, semi-active 0.25<IC75≤0.50, inactive IC75>0.5
# Text: as §1
Substance,Haemolytic activity against red blood cells [1],remaining at 2 h (in vitro) [%],remaining at 6 h (in vitro) [%],Reduction in viable count (MRSA strains [2]; in 30 min) [log10 CFU/ml],Colony count relative to the control group treated with PBS (USA300 MRSA (BAA-1717)),"IC75 values indicating activity classes, Sal. typhimurium (Sal. typhimurium)",Resistance acquisition during serial passage (MRSA strains [3]),"IC75 values indicating activity classes, P. aeruginosa H1001 (P. aeruginosa H1001)","IC75 values indicating activity classes, E. coli (E. coli K12)","IC75 values indicating activity classes, EMRSA-15 (EMRSA-15)",Reduction in viable count (MRSA strains [2]; within the first 10 min) [log10 CFU/ml]
HLRRINKLLTRIGLYRHAFG-NH2 [Lynronne-2],little haemolytic activity,≥ 60,42,> 3,No significant decreases,0.09,failed to produce mutants that were resistant,0.14,0.09,0.29,
LPRRNRWSKIWKKVVTVFS-NH2 [Lynronne-1],little haemolytic activity,48,15,,significant decrease,0.24,failed to produce mutants that were resistant,0.14,0.06,0.38,> 8
NRFTARFRRTPWRLCLQFRQ-NH2 [Lynronne-3],little haemolytic activity,≥ 88,34,,No significant decreases,0.41,failed to produce mutants that were resistant,0.54,0.16,0.65,> 8

# Reference: paper PMC5711939, “The rumen microbiome: an underexplored resource for novel antimicrobial discovery” (NPJ Biofilms and Microbiomes, 2017)
